After the bases stand the sugars from the 5' end (letter, count) and the backbone: PS all phosphorothioate, else s phosphorothioate and o phosphodiester by linkage. Methylation of C is not given here. l = locked nucleic acid (LNA); d = 2'-deoxy (DNA)
Biological target: SNHG14
Conditions: ASO
[1] = Mouse Primary Neuronal Cell, 0.005 µM

Row | Sequence | target mRNA inhibition (Human Neuronal Cell, 7.5 µM) [%] | target mRNA inhibition (Human Neuronal Cell, 0.2 µM) [%] | target mRNA inhibition (Human Neuronal Cell, 1 µM) [%] | further results
1 | AAAATCTCAACTACCATTT (sugars l6 d6 l2 d2 l3, PS) | 23 |  |  | 
2 | AAAATCTCAACTACCATTTT (sugars lldldlddddddddlldlll, PS) | 24 |  |  | 
3 | AAAATTATTTATACACCATC (sugars ldldllddddddddlldlll, PS) | 59 |  |  | 
4 | AAAATTATTTATACACCATC (sugars lldllldddddddlddllll, PS) | 52 |  |  | 
5 | AAAATTATTTATACACCATC (sugars lllldlddddddddldllll, PS) | 59 |  |  | 
6 | AAAGATCATTCTCAACAA (sugars l1 d1 l1 d9 l6, PS) | 61 |  |  | 
7 | AAATCTCAACTACCATTTTT (sugars ldldddldddddddllldll, PS) | 14 |  |  | 
8 | AAATCTCAACTACCATTTTT (sugars lldddllddddddlddllll, PS) | 29 |  |  | 
9 | AAATTATTTATACACCATCA (sugars l4 d10 l1 d2 l3, PS) | 66 |  |  | 
10 | AAATTATTTATACACCATCA (sugars llddldldddddddddllll, PS) | 67 |  |  | 
11 | AAATTATTTATACACCATCA (sugars lldlldldddddddldddll, PS) | 71 |  |  | 
12 | AAATTATTTATACACCATCA (sugars lllddllddddddlldddll, PS) | 64 |  |  | 
13 | AAATTGTCTACCTTCCT (sugars l2 d12 l3, PS) |  | 29 | 19 | 
14 | AACCAATTATACTTACA (sugars l4 d11 l2, PS) |  | 40 | 51 | 
15 | AACTCTCACTGTAACTT (sugars l3 d11 l3, PS) |  | 32 | 42 | 
16 | AACTGTTTATACCCTTT (sugars l4 d11 l2, PS) |  | 51 | 55 | 
17 | AATGCTCACACTAATT (sugars l4 d10 l2, PS) |  | 37 | 54 | 
18 | AATTATTTATACACCAT (sugars l2 d11 l4, PS) |  | 2 | 32 | 
19 | AATTATTTATACACCATCAT (sugars llddldddddddddldllll, PS) | 70 |  |  | 
20 | AATTATTTATACACCATCAT (sugars llldllddddddddlddlll, PS) | 64 |  |  | 
21 | ACATCTCATACTTGCT (sugars l2 d10 l4, PS) |  | -10 | -5 | target mRNA inhibition (Human Neuronal Cell, 5 µM): 8%; target mRNA inhibition [1]: 96%

Row | Sequence | target mRNA inhibition (Human Neuronal Cell, 7.5 µM) [%] | target mRNA inhibition (Human Neuronal Cell, 0.2 µM) [%] | target mRNA inhibition (Human Neuronal Cell, 1 µM) [%] | further results
22 | ACATCTCATACTTGCT (sugars l2 d12 l2, PS) |  | -13 | -7 | target mRNA inhibition (Human Neuronal Cell, 5 µM): 4%; target mRNA inhibition [1]: 93.9%
23 | ACATGTCCCTTTATAT (sugars l2 d12 l2, PS) |  | -9 | -2 | target mRNA inhibition (Human Neuronal Cell, 5 µM): 15%
24 | ACATGTCCCTTTATAT (sugars l3 d10 l3, PS) |  | 1 | -13 | target mRNA inhibition (Human Neuronal Cell, 5 µM): 6%; target mRNA inhibition [1]: 88.2%
25 | ACCTACATCTCATACTT (sugars l2 d13 l2, PS) |  | 3 | -18 | target mRNA inhibition (Human Neuronal Cell, 5 µM): 7%; target mRNA inhibition [1]: 88.6%
26 | ACCTACATCTCATACTT (sugars l3 d11 l3, PS) |  | 1 | -10 | target mRNA inhibition (Human Neuronal Cell, 5 µM): 6%; target mRNA inhibition [1]: 94.2%
27 | ACTCTGCAATACACCA (sugars l3 d10 l3, PS) |  | 52 | 56 | 
28 | ACTCTGCAATACACCAA (sugars l2 d1 l2 d9 l3, PS) | 55 |  |  | 
29 | ACTCTGCAATACACCAA (sugars l2 d11 l4, PS) | 59 |  |  | 
30 | ACTCTGCAATACACCAA (sugars lddldddddddldldll, PS) | 66 |  |  | 
31 | ACTCTGCAATACACCAA (sugars lldlddddddddlldll, PS) | 65 |  |  | 
32 | ACTCTTTAGATTCATC (sugars l2 d10 l4, PS) |  | 53 | 44 | 
33 | ACTGTTTATACCCTTTC (sugars l2 d9 l1 d3 l2, PS) | 49 |  |  | 
34 | ACTGTTTATACCCTTTC (sugars ldddlddddddlddlll, PS) | 53 |  |  | 
35 | ACTGTTTATACCCTTTC (sugars ldlddddddddldldll, PS) | 63 |  |  | 
36 | ACTGTTTATACCCTTTCC (sugars l1 d3 l1 d11 l2, PS) | 49 |  |  | 
37 | ACTGTTTATACCCTTTCC (sugars lddldlddddddddddll, PS) | 53 |  |  | 
38 | ACTTCCAGATTTCTACA (sugars l2 d11 l4, PS) |  | 54 | 63 | 
39 | AGACTAATCCTCTTAA (sugars l3 d10 l3, PS) |  | 38 | 52 | 
40 | AGATCATTCTCAACAATTA (sugars ldldlldddddddddddll, PS) | 57 |  |  | 
41 | AGCAACATTATTAACCAC (sugars llldlddddddddlddll, PS) | 46 |  |  | 

— the OligoGym collection
